Patent publication US20250319073A1, “COMPOSITIONS AND METHODS FOR THE TREATMENT OF HUNTINGTON’S DISEASE AND HTT PROTEINOPATHIES” (priority 2022, published 2025)

Tests used:
[1] = tested on: Peripheral Blood Mononuclear Cells (PBMC); assay: MitoSOX mitochondrial ROS assay (flow cytometry) in PBMCs of treated mice; format: in vivo, mouse; details: R6/2 mice, 0.5 mg/kg / 5 mg/kg i.p. QD, PBMCs collected at 13 weeks of age
Procedure: Euthanasia & Sample Collection—At 13 weeks of age, 9 mice per group were euthanized by deep anesthesia with sodium pentobarbital (180 mg/kg). The remaining mice were euthanized and any samples were not collected, except the tail and ear samples. A terminal blood sample (as much as possible) was collected by cardiac puncture into a syringe. The whole blood was placed in Li-Hep tube at RT and used immediately for preparation of PBMCs. The whole brain was collected and fresh frozen in liquid nitrogen and stored at −80° C. Blood was collected also from extra animals as staining controls for the flow cytometry assays (n=3 extra animals per day). Tail and ear samples were collected for possible post-study re-genotype analysis. […] Right before measurement 1 μL of propidium iodide was added and the cell number and viability was determined by MACSquant Analyzer 10 flow cytometer. […] The cells were analyzed immediately after the staining using the MACSQuant Analyzer 10 (Miltenyi Biotec) and Cytation 3 (Cell titerglow). […] Oxidation of MitoSOX™ Red reagent by superoxide produces red fluorescence and can be used to reliably the relative differences in mitochondrial ROS formation in cells. […] Concentrations exceeding 5 μM can produce cytotoxic effects, including altered mitochondrial morphology and redistribution of fluorescence to nuclei and the cytosol. • 2. […]

R6/2 mice = assay: 18F-FDG PET brain glucose uptake in R6/2 mice; format: in vivo, mouse
Procedure: Study Summary—A total of 46 male R6/2 mice and 15 male wild-type littermate control mice (WT) were used in the study. The mice were genotyped and the R6/2 mice were divided into different treatment groups based on their pre-treatment body weight. The treatment with Compound (Ia) (0.5 or 5 mg/kg; 10 ml/kg, intraperitoneally (i.p.), QD) or Vehicle (10 ml/kg, i.p., QD) was started at 4 weeks of age. Body weights were measured before the treatment onset and continued twice a week until the end of the study. Fine motor kinematic analysis and rotarod test were performed at 10 weeks of age and the open field activity and clasping behavior were measured at 12 weeks of age for all mice. At 8 and 12 weeks of age the glucose uptake was measured by ^18F-FDG PET and the striatal metabolites were measured using MR spectroscopy for 9-10 mice per group. At 13 weeks of age 9-10 mice per group were subjected to tissue sample collection, and the brain and blood samples were collected. The blood samples were used to prepare peripheral blood mononuclear cells (PBMCs) on which the flow cytometry/luminescence analysis was performed for following assays: mitochondrial reactive oxygen species (ROS) (MitoSox), and ATP levels (Cell TiterGlow).
^18F-FDG-PET Analysis—At 8 and 12 weeks of age, 9 mice per group were fasted overnight (water allowed ad libitum) to standardize the blood glucose level. […]

SMILES: Cc1cc(O)cc(C)c1C[C@H](NC(=O)[C@H](N)CCCNC(=N)N)C(=O)N[C@@H](CCCCN)c1nc(Cc2ccccc2)no1.Cl.Cl [Compound (Ia), (R)-2-amino-N—((S)-1-(((S)-5-amino-1-(3-benzyl-1,2,4-oxadiazol-5-yl)pentyl)amino)-3-(4-hydroxy-2,6-dimethylphenyl)-1-oxopropan-2-yl)-5-guanidinopentanamide]
- mitochondrial ROS formation (MitoSOX) in PBMCs, R6/2+Vehicle vs treated R6/2 [1]: no significant differences
- 18F-FDG uptake (radioactivity) in olfactory bulb compared to vehicle treated R6/2 mice (R6/2 mice; 5 mg/kg i.p. QD, 12 weeks of age, p<0.05, Mixed-effects model (REML)): statistically significantly higher radioactivity
- 18F-FDG uptake in various brain areas (R6/2 mice; i.p. QD, trend, not statistically significant except olfactory bulb): increased
